Counter-ions that a name gives are not always drawn.
biological target: YKL-40 (Homo sapiens (Human), UniProt P36222); assay: YKL-40:4 assay, competitive chitin binding site AlphaScreen; settings: competition with biotinylated compound 4 (20 nM), YKL-40-histag 2.5 nM
Sequence (P36222 22-383): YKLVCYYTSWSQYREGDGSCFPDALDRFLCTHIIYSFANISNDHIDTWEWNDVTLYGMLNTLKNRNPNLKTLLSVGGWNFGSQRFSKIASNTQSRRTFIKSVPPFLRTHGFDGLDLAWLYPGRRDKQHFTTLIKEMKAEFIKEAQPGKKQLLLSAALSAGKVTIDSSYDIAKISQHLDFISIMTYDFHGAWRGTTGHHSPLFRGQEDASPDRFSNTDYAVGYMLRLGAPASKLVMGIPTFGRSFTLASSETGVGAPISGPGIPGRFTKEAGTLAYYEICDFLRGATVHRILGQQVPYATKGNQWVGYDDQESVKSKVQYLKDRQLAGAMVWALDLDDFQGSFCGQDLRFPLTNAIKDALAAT

IC50	Structure (SMILES)
> 100 µM	C[C@H]1CN(C2CCN(c3cc(C(C)(C)O)ccn3)CC2)[C@@H](Cc2ccc(Cl)cc2)CO1 [compound 131, 2-(2-(4-((2S,5S)-5-(4-chlorobenzyl)-2-methylmorpholino)piperidin-1-yl)pyridin-4-yl)propan-2-ol 2,2,2-trifluoroacetate]
> 100 µM	Cc1cccc(N2CCC(N3C[C@H](C)OC[C@@H]3Cc3ccc(Cl)cc3)CC2)n1 [compound 135, (2S,5S)-5-(4-chlorobenzyl)-2-methyl-4-(1-(6-methylpyridin-2-yl)piperidin-4-yl)morpholine hydrochloride]
> 100 µM	Cc1ccc(N2CCC(N3C[C@H](C)OC[C@@H]3Cc3ccc(Cl)cc3)CC2)nc1 [compound 136, (2S,5S)-5-(4-chlorobenzyl)-2-methyl-4-(1-(5-methylpyridin-2-yl)piperidin-4-yl)morpholine hydrochloride]
> 100 µM	C[C@H]1CN(C2CCN(c3cc(C(F)(F)F)ncn3)CC2)[C@@H](Cc2ccc(Cl)cc2)CO1 [compound 145, (2S,5S)-5-(4-chlorobenzyl)-2-methyl-4-(1-(6-(trifluoromethyl)pyrimidin-4-yl)piperidin-4-yl)morpholine hydrochloride]
1 to 10 µM	C[C@H]1CN(C2CCN(c3nccc(C(F)(F)F)n3)CC2)[C@@H](Cc2ccc(Cl)cc2)CO1 [compound 146, (2S,5S)-5-(4-chlorobenzyl)-2-methyl-4-(1-(4-(trifluoromethyl)pyrimidin-2-yl)piperidin-4-yl)morpholine hydrochloride]
> 100 µM	O=C1COC[C@H](Cc2ccc(Cl)cc2)N1C1CCN(c2ccccn2)CC1 [compound 147, (S)-5-(4-chlorobenzyl)-4-(1-(pyridin-2-yl)piperidin-4-yl)morpholin-3-one hydrochloride]
> 100 µM	CC(C)C1OC[C@H](Cc2ccc(Cl)cc2)N1C1CCN(c2ccccn2)CC1 (stereo partly drawn) [compound 150, (4S)-4-(4-chlorobenzyl)-2-isopropyl-3-(1-(pyridin-2-yl)piperidin-4-yl)oxazolidine hydrochloride]
> 100 µM	C[C@H]1CN(C2CCN(c3cncc(C(F)(F)F)n3)CC2)[C@@H](Cc2ccc(Cl)cc2)CO1 [compound 153, (2S,5S)-5-(4-chlorobenzyl)-2-methyl-4-(1-(6-(trifluoromethyl)pyrazin-2-yl)piperidin-4-yl)morpholine hydrochloride]
10 to 100 µM	C[C@H]1CN(C2CCN(c3ccnc(Br)c3)CC2)[C@@H](Cc2ccc(Cl)cc2)CO1 [compound 156, (2S,5S)-4-(1-(2-bromopyridin-4-yl)piperidin-4-yl)-5-(4-chlorobenzyl)-2-methylmorpholine hydrochloride]
10 to 100 µM	C[C@H]1CN(C2CCN(c3cccc4nccn34)CC2)[C@@H](Cc2ccc(Cl)cc2)CO1 [compound 157, (2S,5S)-5-(4-chlorobenzyl)-4-(1-(imidazo[1,2-α]pyridin-5-yl)piperidin-4-yl)-2-methylmorpholine hydrochloride]
> 100 µM	C[C@H]1CN(C2CCN(c3cnc(C(F)(F)F)cn3)CC2)[C@@H](Cc2ccc(Cl)cc2)CO1 [compound 158, (2S,5S)-5-(4-chlorobenzyl)-2-methyl-4-(1-(5-(trifluoromethyl)pyrazin-2-yl)piperidin-4-yl)morpholine hydrochloride]
0.1 to 1 µM	C[C@H]1CN(c2ccc(-c3ccccn3)cc2)[C@@H](Cc2ccc(Cl)cc2)CO1 [compound 159, (2S,5S)-5-(4-chlorobenzyl)-2-methyl-4-(4-(pyridin-2-yl)phenyl)morpholine hydrochloride]
> 100 µM	C[C@H]1CN(C2CCN(c3ncccc3O)CC2)[C@@H](Cc2ccc(Cl)cc2)CO1 [compound 160, 2-(4-((2S,5S)-5-(4-chlorobenzyl)-2-methylmorpholino)piperidin-1-yl)pyridin-3-ol 2,2,2-trifluoroacetate]
10 to 100 µM	C[C@H]1CN(C2CCN(c3cc(O)ccn3)CC2)[C@@H](Cc2ccc(Cl)cc2)CO1 [compound 161, 2-(4-((2S,5S)-5-(4-chlorobenzyl)-2-methylmorpholino)piperidin-1-yl)pyridin-4-ol 2,2,2-trifluoroacetate]
> 100 µM	COc1cccnc1N1CCC(N2C[C@H](C)OC[C@@H]2Cc2ccc(Cl)cc2)CC1 [compound 162, (2S,5S)-5-(4-chlorobenzyl)-4-(1-(3-methoxypyridin-2-yl)piperidin-4-yl)-2-methylmorpholine 2,2,2-trifluoroacetate]
> 100 µM	CC(C)c1nc(N2CCC(N3C[C@H](C)OC[C@@H]3Cc3ccc(Cl)cc3)CC2)no1 [compound 163, (2S,5S)-5-(4-chlorobenzyl)-4-(1-(5-isopropyl-1,2,4-oxadiazol-3-yl)piperidin-4-yl)-2-methylmorpholine 2,2,2-trifluoroacetate]
> 100 µM	C[C@H]1CN(C2CCN(c3noc(C(F)(F)F)n3)CC2)[C@@H](Cc2ccc(Cl)cc2)CO1 [compound 164, (2S,5S)-5-(4-chlorobenzyl)-2-methyl-4-(1-(5-(trifluoromethyl)-1,2,4-oxadiazol-3-yl)piperidin-4-yl)morpholine 2,2,2-trifluoroacetate]
> 100 µM	C[C@H]1CN(C2CCN(c3noc(=O)[nH]3)CC2)[C@@H](Cc2ccc(Cl)cc2)CO1 [compound 165, 3-(4-((2S,5S)-5-(4-chlorobenzyl)-2-methylmorpholino)piperidin-1-yl)-1,2,4-oxadiazol-5(4H)-one 2,2,2-trifluoroacetate]
> 100 µM	C[C@H]1CN(C2CCN(c3nnn[nH]3)CC2)[C@@H](Cc2ccc(Cl)cc2)CO1 [compound 166, (2S,5S)-4-(1-(1H-tetrazol-5-yl)piperidin-4-yl)-5-(4-chlorobenzyl)-2-methylmorpholine 2,2,2-trifluoroacetate]
> 100 µM	C[C@H]1CN(C2CCN(c3cc(=O)[nH]cn3)CC2)[C@@H](Cc2ccc(Cl)cc2)CO1 [compound 167, 6-(4-((2S,5S)-5-(4-chlorobenzyl)-2-methylmorpholino)piperidin-1-yl)pyrimidin-4(3H)-one 2,2,2-trifluoroacetate]
> 100 µM	C[C@H]1CN(C2CCN(c3ncnc(Cl)n3)CC2)[C@@H](Cc2ccc(Cl)cc2)CO1 [compound 169, (2S,5S)-4-(1-(4-chloro-1,3,5-triazin-2-yl)piperidin-4-yl)-5-(4-chlorobenzyl)-2-methylmorpholine 2,2,2-trifluoroacetate]
> 100 µM	C[C@H]1CN(C2CCN(c3ncnc(O)n3)CC2)[C@@H](Cc2ccc(Cl)cc2)CO1 [compound 170, 4-(4-((2S,5S)-5-(4-chlorobenzyl)-2-methylmorpholino)piperidin-1-yl)-1,3,5-triazin-2-ol 2,2,2-trifluoroacetate]
> 100 µM	COc1ncnc(N2CCC(N3C[C@H](C)OC[C@@H]3Cc3ccc(Cl)cc3)CC2)n1 [compound 171, (2S,5S)-5-(4-chlorobenzyl)-4-(1-(4-methoxy-1,3,5-triazin-2-yl)piperidin-4-yl)-2-methylmorpholine 2,2,2-trifluoroacetate]
> 100 µM	Cc1ncnc(N2CCC(N3C[C@H](C)OC[C@@H]3Cc3ccc(Cl)cc3)CC2)n1 [compound 172, (2S,5S)-5-(4-chlorobenzyl)-2-methyl-4-(1-(4-methyl-1,3,5-triazin-2-yl)piperidin-4-yl)morpholine 2,2,2-trifluoroacetate]
> 100 µM	C[C@H]1CN(C2CCN(c3ncnc(C#N)n3)CC2)[C@@H](Cc2ccc(Cl)cc2)CO1 [compound 173, 4-(4-((2S,5S)-5-(4-chlorobenzyl)-2-methylmorpholino)piperidin-1-yl)-1,3,5-triazine-2-carbonitrile 2,2,2-trifluoroacetate]
> 100 µM	C[C@H]1CN(C2CCN(c3ncnc(N)n3)CC2)[C@@H](Cc2ccc(Cl)cc2)CO1 [compound 174, 4-(4-((2S,5S)-5-(4-chlorobenzyl)-2-methylmorpholino)piperidin-1-yl)-1,3,5-triazin-2-amine 2,2,2-trifluoroacetate]
> 100 µM	C[C@H]1CN(C2CCN(c3ncnc(N(C)C)n3)CC2)[C@@H](Cc2ccc(Cl)cc2)CO1 [compound 175, 4-(4-((2S,5S)-5-(4-chlorobenzyl)-2-methylmorpholino)piperidin-1-yl)-N,N-dimethyl-1,3,5-triazin-2-amine 2,2,2-trifluoroacetate]
> 100 µM	C[C@H]1CN(C2CCN(c3ncns3)CC2)[C@@H](Cc2ccc(Cl)cc2)CO1 [compound 179, (2S,5S)-4-(1-(1,2,4-thiadiazol-5-yl)piperidin-4-yl)-5-(4-chlorobenzyl)-2-methylmorpholine 2,2,2-trifluoroacetate]

Structure (SMILES)	IC50
C[C@H]1CN(C2CCN(c3cc(C(N)=O)ccn3)CC2)[C@@H](Cc2ccc(Cl)cc2)CO1 [compound 132, 2-(4-((2S,5S)-5-(4-chlorobenzyl)-2-methylmorpholino)piperidin-1-yl)isonicotinamide 2,2,2-trifluoroacetate]	> 100 µM
CN1C[C@H](Cc2ccc(Cl)cc2)N(C2CCN(c3ccccn3)CC2)CC12CCC2 [compound 148, (S)-7-(4-chlorobenzyl)-5-methyl-8-(1-(pyridin-2-yl)piperidin-4-yl)-5,8-diazaspiro[3.5]nonane hydrochloride]	0.1 to 1 µM
O=C1NCCN(C2CCN(c3ccccn3)CC2)[C@H]1Cc1ccc(Cl)cc1 [compound 149, (S)-3-(4-chlorobenzyl)-4-(1-(pyridin-2-yl)piperidin-4-yl)piperazin-2-one 2,2,2-trifluoroacetate]	> 100 µM
CNC(=O)[C@H]1CN(C2CCN(c3ccccn3)CC2)[C@@H](Cc2ccc(Cl)cc2)CO1 [compound 154, (2R,5S)-5-(4-chlorobenzyl)-N-methyl-4-(1-(pyridin-2-yl)piperidin-4-yl)morpholine-2-carboxamide hydrochloride]	0.1 to 1 µM
Clc1ccc(C[C@H]2CN3CCOC[C@H]3CN2C2CCN(c3ccccn3)CC2)cc1 [compound 155, (7S,9aR)-7-(4-chlorobenzyl)-8-(1-(pyridin-2-yl)piperidin-4-yl)octahydropyrazino[2,1-c][1,4]oxazine hydrochloride]	< 0.1 µM
C[C@H]1CN(C2CCN(c3ncc(C(F)(F)F)o3)CC2)[C@@H](Cc2ccc(Cl)cc2)CO1 [compound 168, (2S,5S)-5-(4-chlorobenzyl)-2-methyl-4-(1-(5-(trifluoromethyl)oxazol-2-yl)piperidin-4-yl)morpholine 2,2,2-trifluoroacetate]	> 100 µM

— US20230278996A1, “YKL-40 INHIBITORS AND THEIR THERAPEUTIC APPLICATIONS” (Molecure S.A., priority 2022, published 2023)
